# Source: ChEMBL document CHEMBL4393743, “Anti-tumor activity evaluation of novel tubulin and HDAC dual-targeting inhibitors” (Bioorg Med Chem Lett, 2019)
# Calls of active or inactive are those of the source. The rule behind the calls is not given here.
# How the values were obtained:
# A549 [1] = experiment: Induction of cell cycle arrest in human A549 cells assessed as accumulation at S phase at 1 uM incubated for 36 hrs by propidium iodide staining based flow cytometry (reference value: 16.66%); assay type: functional
# A549 [2] = experiment: Induction of cell cycle arrest in human A549 cells assessed as accumulation at G2/M phase at 10 uM incubated for 36 hrs by propidium iodide staining based flow cytometry (reference value: 10.83%); assay type: functional
# A549 [3] = experiment: Induction of apoptosis in human A549 cells assessed as necrotic cells at 0.1 uM incubated for 72 hrs by Annexin V-FITC/propidium iodide-staining based flow cytometric analysis (reference value: 2.76%); assay type: functional
# A549 [4] = experiment: Induction of apoptosis in human A549 cells assessed as early apoptotic cells at 1 uM incubated for 72 hrs by Annexin V-FITC/propidium iodide-staining based flow cytometric analysis (reference value: 1.8%); assay type: functional
# HeLa = experiment: Antiproliferative activity against human HeLa cells assessed as cell growth inhibition incubated for 72 hrs by MTT assay; assay type: functional, cell-based
# BGC-823 = experiment: Antiproliferative activity against human BGC823 cells assessed as cell growth inhibition incubated for 72 hrs by MTT assay; assay type: functional, cell-based; conditions: BGC-823, 72 h
# A549 [5] = experiment: Induction of apoptosis in human A549 cells assessed as necrotic cells at 0.3 uM incubated for 72 hrs by Annexin V-FITC/propidium iodide-staining based flow cytometric analysis (reference value: 2.76%); assay type: functional
# A549 [6] = experiment: Induction of cell cycle arrest in human A549 cells assessed as accumulation at G2/M phase incubated for 36 hrs by propidium iodide staining based flow cytometry; assay type: functional
# A549 [7] = experiment: Antimigratory activity in human A549 cells at 5 to 10 uM incubated for 12 hrs in presence of mitomycin by inverted microscopic-based wound healing assay; assay type: functional, cell-based
# A549 [8] = experiment: Induction of cell cycle arrest in human A549 cells assessed as accumulation at G0/G1 phase at 1 uM incubated for 36 hrs by propidium iodide staining based flow cytometry (reference value: 72.51%); assay type: functional
# Histone deacetylase 8 = target: T1, Histone deacetylase 8 (Homo sapiens, UniProt Q9BY41); experiment: Inhibition of HDAC8 (unknown origin) using Boc-Lys(Ac)-AMC as substrate incubated for 60 mins by fluorescence assay
# T1 sequence (Q9BY41 whole entry): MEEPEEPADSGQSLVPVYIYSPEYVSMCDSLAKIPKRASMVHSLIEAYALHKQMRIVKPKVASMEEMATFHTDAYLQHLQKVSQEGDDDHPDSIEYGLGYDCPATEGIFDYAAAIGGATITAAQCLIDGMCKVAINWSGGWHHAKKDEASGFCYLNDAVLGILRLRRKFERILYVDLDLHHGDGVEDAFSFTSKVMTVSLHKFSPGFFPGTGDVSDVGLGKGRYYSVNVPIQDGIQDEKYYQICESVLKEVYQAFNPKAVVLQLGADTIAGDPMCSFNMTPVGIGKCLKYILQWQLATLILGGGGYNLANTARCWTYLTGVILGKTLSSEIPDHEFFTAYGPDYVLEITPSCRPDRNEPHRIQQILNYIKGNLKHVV
# A549 [9] = experiment: Induction of cell cycle arrest in human A549 cells assessed as accumulation at S phase at 10 uM incubated for 36 hrs by propidium iodide staining based flow cytometry (reference value: 16.66%); assay type: functional
# A549 [10] = experiment: Induction of apoptosis in human A549 cells assessed as live cells at 0.1 uM incubated for 72 hrs by Annexin V-FITC/propidium iodide-staining based flow cytometric analysis (reference value: 89.8%); assay type: functional
# A549 [11] = experiment: Induction of cell cycle arrest in human A549 cells assessed as accumulation at G2/M phase at 0.3 uM incubated for 36 hrs by propidium iodide staining based flow cytometry (reference value: 10.83%); assay type: functional
# A549 [12] = experiment: Induction of apoptosis in human A549 cells assessed as necrotic cells at 1 uM incubated for 72 hrs by Annexin V-FITC/propidium iodide-staining based flow cytometric analysis (reference value: 2.76%); assay type: functional
# A549 [13] = experiment: Induction of cell cycle arrest in human A549 cells assessed as accumulation at G2/M phase at 1 uM incubated for 36 hrs by propidium iodide staining based flow cytometry (reference value: 10.83%); assay type: functional
# A549 [14] = experiment: Induction of cell cycle arrest in human A549 cells assessed as accumulation at G0/G1 phase at 0.1 uM incubated for 36 hrs by propidium iodide staining based flow cytometry (reference value: 72.51%); assay type: functional
# A549 [15] = experiment: Induction of apoptosis in human A549 cells assessed as live cells at 0.3 uM incubated for 72 hrs by Annexin V-FITC/propidium iodide-staining based flow cytometric analysis (reference value: 89.8%); assay type: functional
# A549 [16] = experiment: Induction of cell cycle arrest in human A549 cells assessed as accumulation at S phase at 0.3 uM incubated for 36 hrs by propidium iodide staining based flow cytometry (reference value: 16.66%); assay type: functional
compound,measurement,setting,value
COc1ccc(/C=C(\C)C(=O)c2cc(OC)c(OC)c(OC)c2)cc1OCCCC(=O)NO,Activity,A549 [1],20.54%
same,Activity,A549 [2],81.88%
same,Activity,A549 [3],1.51%
same,Activity,A549 [4],6.6%
same,IC50,HeLa,890 nM
same,IC50,BGC-823,2400 nM
same,Activity,A549 [5],2.19%
same,Activity,A549 [6],Dose-dependent effect
same,Activity,A549 [7],Active
same,Activity,A549 [8],16.57%
same,IC50,Histone deacetylase 8,1700 nM
same,Activity,A549 [9],16.55%
same,Activity,A549 [10],84.8%
same,Activity,A549 [11],13.81%
same,Activity,A549 [12],8.05%
same,Activity,A549 [13],62.89%
same,Activity,A549 [14],68.44%
same,Activity,A549 [15],79.9%
same,Activity,A549 [16],39.96%
